Experimental data as given in patent US9919019B2, “Use of essential oil of oregano or of rosewood, or constituents thereof, in the cosmetic treatment of keratoses” (L'Oreal, priority 2010, dated 2018).

System: A431 cells
Assay: Annexin V/propidium iodide (AV/PI) apoptosis test in A431 cells
Assay type: cell-based, human
Conditions: for death by targeted apoptosis of mutated cancer cells / cytotoxic efficacy compared with complex essential oils: 12 h; for death by targeted apoptosis of mutated cancer cells: A431 versus HEK001, concentrations equal to those present in the EO treatments (linalool 320 nL/mL, carvacrol 60 nL/mL, thymol 30 nL/mL); for cytotoxic efficacy compared with complex essential oils: equivalent dose; for apoptotic A431 cells: 12 h of treatment
Protocol: These three molecules were incubated for 12 h with non-mutated immortalized keratinocytes (HEK001) and mutated cancerous keratinocytes (A431). The percentage of cells in apoptosis was measured by the annexin V/propidium iodide test. The concentrations of the molecules used were equal to those present during the treatments with the essential oils. Example: the concentration of linalool used here represents the equivalent of 80% of linalool present in the essential oil of rosewood.
Thirty six hours before the treatment, the cells were distributed into a 96-well plate (5×10^5 cells/mL).
EO treatment solution: the essential oils were diluted to 1/10th a first time in 100% ethanol. Next, a second dilution was carried out in culture medium in order to obtain the desired concentrations.
The AV/PI test can be used to detect this event because of the affinity of the protein annexin V for phosphatidyl-serine. Propidium iodide, which targets DNA, can be used to distinguish early apoptotic cells from cells in late apoptosis and/or in necrosis.
After the desired treatment time, the medium was eliminated, the cells were harvested (by trypsinization), centrifuged and rinsed in 4 mL of PBS 1×. Tagging was carried out following the instructions of the manufacturer (Kit Vybrant, Molecular Probe). The cells were rapidly taken up in 100 μl of tagging buffer, to which 6 μl of annexin V and 3 μg/mL of propidium iodide per sample was added. The cells were then incubated for 30 min in the dark (at ambient temperature). Four hundred μL of tagging buffer was added before measuring the fluorescence of the annexin V (at 530 nm) and of the propidium iodide (at 610 nm).

Compound | death by targeted apoptosis of mutated cancer cells | cytotoxic efficacy compared with complex essential oils | apoptotic A431 cells (carvacrol 60 nL/mL) [%] | apoptotic A431 cells (thymol 30 nL/mL)
Cc1ccc(C(C)C)cc1O [carvacrol] | qualitatively conserved | lower than with complex essential oils | ~25 | –
C=CC(C)(O)CCC=C(C)C (centres unmarked) [linalool] | qualitatively conserved | lower than with complex essential oils | – | –
Cc1ccc(C(C)C)c(O)c1 [thymol] | qualitatively conserved | lower than with complex essential oils | – | approximately 15%
